{
  "source": "patent US6451734B1",
  "about": "“Substituted 3-benzylpyrazoles and their use as herbicides” (BASF Aktiengesellschaft, priority 1996, dated 2002)",
  "type_in_all_cases": "in vivo",
  "key": {"[1]": {"assay": "effect on the plasma glucose and insulin level in diabetes mice", "conditions": "homocygotic diabetes mice, not fed for one night; by pharyngeal tube in 0.25% hydroxyethylcellulose; blood collected 2 and 4 hours after treatment", "from_the_text": "The animals which were used in the experiments described below received, in addition to sufficient water, a standard feed (“Rat and Mouse Breeder and Grower Diet” supplied by Special Diets Services Ltd., UK). Effect of the active compounds according to the invention on the plasma glucose and insulin level The laboratory animals used were homocygotic diabetes mice (40—60 g, supplied by Harlan UK) which were initially not fed for one night and then separated into different groups. The active compounds were administered as a solution or suspension in 0.25% strength aqueous hydroxyethylcellulose (CELLOSIZE supplied by UCC) using a pharyngeal tube, namely at 5 ml/kg of body weight. 2 and 4 hours after the treatment, approximately 50 μl each of blood were collected from the tip of the tail in capillary tubes for the collection of blood containing lithium heparin (supplied by Sarstedt, “Microvette CB300LH”). Plasma samples (5 μl) were immediately tested for their glucose content. A further 10 μl were stored in an Eppendorf tube at (−70)° C. until the plasma glucose and insulin content were determined."}, "[2]": {"assay": "determination of glucose elimination via urine in CD1-mice", "protocol": "The animals which were used in the experiments described below received, in addition to sufficient water, a standard feed (“Rat and Mouse Breeder and Grower Diet” supplied by Special Diets Services Ltd., UK). Determination of Glucose Elimination via Urine In this experiment, 4 groups of 5 CD1-mice each (20—25 g, supplied by Harlan, UK) were transferred into metabolism cages and initially acclimatized for 24 hours. By pharyngeal tube, animals were then administered 100 mg/kg of body weight of the active compound IIIc.1, dissolved or suspended in 0.25% strength aqueous hydroxyethylcellulose (CELLOSIZE supplied by UCC). For comparison, 0.25% strength aqueous Cellosize without active compound was administered to the other 10 mice. The urine was subsequently collected for 24 hours and its total volume was measured. In each case […] of urine were examined for their glucose content."}, "[3]": {"tested_on": "Abutilon theophrasti", "assay": "greenhouse experiment, post-emergence treatment (herbicidal activity)", "conditions": "Abutilon theophrasti (velvet leaf), 0.125 kg/ha of a.s.", "from_the_text": "(§1) The herbicidal activity of the substituted 3-benzylpyrazoles I was demostrated by the following greenhouse experiments: The culture containers used were plastic flowerpots containing loamy soil with approximately 3.0% of humus as the substrate. The seeds of the test plants were sown separately for each species. For the post-emergence treatment, the test plants were first grown to a plant height of 3 to 15 cm, depending on the plant habit, and only then treated with the active ingredients which had been suspended or emulsified in water. The test plants for this purpose were either sown directly and grown in the same containers, or they were first grown separately as seedlings and transplanted into the test containers a few days prior to treatment. The rate of application for the post-emergence treatment was 0.125 kg/ha of a.s. (active substance). Depending on the species, the plants were kept at 10-25° C. or 20-35° C. The test period extended over 2 to 4 weeks. During this time, the plants were tended, and their response to the individual treatments was evaluated. Evaluation was carried out using a scale from 0 to 100. 100 means no emergence of the plants, or complete destruction of at least the aerial parts, and 0 means no damage, or normal course of growth. The plants used in the greenhouse experiments belonged to the following species: [table]"}, "[4]": {"tested_on": "Amaranthus retroflexus", "assay": "greenhouse experiment, post-emergence treatment (herbicidal activity)", "conditions": "Amaranthus retroflexus (redroot pigweed), 0.125 kg/ha of a.s.", "from_the_text": "as §1"}, "[5]": {"tested_on": "Setaria viridis", "assay": "greenhouse experiment, post-emergence treatment (herbicidal activity)", "conditions": "Setaria viridis (green foxtail), 0.125 kg/ha of a.s.", "from_the_text": "as §1"}, "[6]": {"tested_on": "Solanum nigrum", "assay": "greenhouse experiment, post-emergence treatment (herbicidal activity)", "conditions": "Solanum nigrum (black nightshade), 0.125 kg/ha of a.s.", "from_the_text": "as §1"}, "[7]": {"conditions": "10 CD1-mice, 100 mg/kg of body weight by pharyngeal tube, urine collected for 24 hours"}},
  "data": [
    {"smiles": "Cn1c(=O)cc(Cc2cccc(Cl)c2Cl)n1C(F)F", "note": "[IIIc.1, 5-(2,3-Dichlorobenzyl)-1-difluoromethyl-1,2-dihydro-2-methyl-3H-pyrazol-3-one]", "values": [
      {"measurement": "plasma insulin level", "setting": "[1]", "result": "substantially unchanged"},
      {"measurement": "glucose concentration of the urine", "setting": "[2]; [7]", "result": 17.62, "unit": "mmol/L"},
      {"measurement": "total elimination of glucose", "setting": "[2]; [7]", "result": 70.48, "unit": "µmol"},
      {"measurement": "increase of the elimination of glucose (via urine)", "setting": "[2]; CD1-mice, 100 mg/kg by pharyngeal tube, 24 hours, versus Cellosize without active compound", "result": 52, "unit": "%"}
    ]},
    {"smiles": "Cn1nc(Cc2cccc(Cl)c2Cl)c(Cl)c1OC(F)F", "note": "[Ia.1, 4-Chloro-3-(2,3-dichlorobenzyl)-5-difluoromethoxy-1-methyl-1H-pyrazole]", "values": [
      {"measurement": "herbicidal activity", "setting": "[3]", "result": "very good"},
      {"measurement": "herbicidal activity", "setting": "[4]", "result": "very good"},
      {"measurement": "herbicidal activity", "setting": "[5]", "result": "very good"},
      {"measurement": "herbicidal activity", "setting": "[6]", "result": "very good"},
      {"measurement": "plasma insulin level", "setting": "[1]", "result": "substantially unchanged"}
    ]},
    {"smiles": "Cn1nc(Cc2cccc(Cl)c2Cl)cc1OC(F)F", "note": "[Ic.1, 3-(2,3-Dichlorobenzyl)-5-difluoromethoxy-1-methyl-1H-pyrazole]", "values": [
      {"measurement": "plasma insulin level", "setting": "[1]", "result": "substantially unchanged"}
    ]}
  ]
}
